Data as given in patent US5690954A, “Enhanced uptake drug delivery system having microspheres containing an active drug and a bioavailability improving material” (priority 1987, dated 1997).
Read-outs that look alike come from different tables or passages of the source.

Legend:
[1] = intranasal, simple solution, versus intravenous; cited from earlier work
[2] = Bioavailability enhancement by microspheres plus bioavailability increasing material (general statement)
Excerpt: The material selected for these studies has been lysophosphatidylcholine (described above).

[3] = Zn-/Na-insulin nasal in rabbits, plasma glucose; type: in vivo, New Zealand White rabbits; conditions: rabbit; for shape of plasma glucose curves versus s.c.: intranasal microspheres and LPC 2.5 IU/kg versus 0.6 IU/kg s.c.; for plasma glucose levels: intranasal microspheres and LPC, 2.5 IU/kg; for plasma glucose levels versus simple insulin solution: intranasal solution with 0.2% LPC, about 2.3 IU/kg
Protocol: Preparations of Zn-insulin (mainly hexamer form) or Na-insulin (mainly monomer/dimer forms) were administered nasally to rabbits either as free insulin or as a microsphere delivery system with lysophosphatidylcholine (LPC) as a bioavailability increasing material. The experiments were performed in replicate (n=4).
Non-fasted New Zealand White female rabbits of average weight 3.5 kg were used in this study.
A 40 IU/ml Zn- or Na-human insulin solution was prepared in buffer (1/75M Na2 HPO4) of pH 7.3-7.4. In some experiments 0.2% LPC was added.
A total of 200 μl of the solution (100 μl in each nostril) was administered intranasally equivalent to about 2.3 IU/kg using an Eppendorf pipette.
The rabbits were dosed s.c. with insulin at 0.8 IU/kg or 0.6 IU/kg from a 14 IU/ml or 10 IU/ml aqueous solution, respectively.
The dose of starch microspheres and insulin was fixed at 2.5 mg/kg and 2.5 IU/kg, respectively. The dose of LPC was 0.2 mg/kg. The average weight of the rabbits was 3.5 kg.
25 mg of microspheres were placed in a small glass vial and 250 μl of a 100 IU/ml insulin solution (Na- or Zn-insulin) was added followed by the 2 mg LPC and 250 μl of distilled water. The microspheres were then allowed to stand for 2 h at room temperature in contact with the insulin solution before freeze drying.
Approximately 15 mg of the freeze dried powder from each individual vial was filled into the applicator tubing, and this was stored in a dessicator until use.
Each rabbit was held on its back during, and for 10 second after, the application to ensure the delivery of the powdered formulation. Blood samples of 200 μl and 2 ml for glucose and insulin determination, respectively, were collected from the marginal ear vein at 10 and 5 min prior to the administration and at 5, 15, 30, 45, 60, 90, 120 and 180 min post-administration. […] The blood samples for glucose analysis were kept on crushed ice awaiting immediate analysis.

[4] = design: species or system Male Wistar rats; conditions: rat, in vivo
Protocol: The in situ rat model of Hirai et al (14) was used as modified by Fisher et al (15). Male Wistar rats of about 200 g were anaesthetized by intraperitoneal injection of 60 mg/kg of Pentobarbitone (Sagatal, 60 mg/ml). The rats were tracheotomized, the oesophagus sealed and the carotid artery cannulated.
A volume of the gentamicin solution containing 0.5% of the drug with and without added lysophosphatidylcholine (LPC) (0.2%) was instilled into the nasal cavity. Blood samples were withdrawn from the carotid artery at 0, 5, 10, 15, 30, 45, 60 and 120 min after drug administration. The gentamicin level was determined by the EMIT method (16).

[5] = sheep, in vivo, 5 mg/kg
Protocol: Cross-bred (Suffolk and Texel) sheep were divided into groups of 3 and 2. The mean weight of the sheep was about 40 kg.
The animals were not fasted prior to the administration of gentamicin. […] The catheter was removed upon completion of the study. […] The sedation lasted about 3 minutes. The animals that received gentamicin by the IV route were also sedated.
The first group of sheep (n=2) was given 0.25 ml of gentamicin solution (386 mg/ml) (5.0 mg/kg) into each nostril. The second group (n=3) received 0.25 ml of gentamicin solution (386 mg/ml) (5.0 mg/kg) containing 2 mg/ml LPC into each nostril. The third group (n=3) received 5.0 mg/kg gentamicin and 0.2 mg/kg LPC in combination with starch microspheres (1.9 mg gentamicin-/mg starch microspheres). The last group of sheep (n=3) was given 2 mg/kg gentamicin administered intravenously as a solution (40 mg/ml) through the jugular vein. Blood samples (2 ml) were collected through the jugular vein at 0, 8, 16, 24, 32, 45, 60, 90, 120, 180 and 240 min after drug administration. The serum was separated by centrifugation and the samples stored at -20° C. awaiting analysis. No heparin was added to any of the samples. The gentamicin level was determined by the EMIT technique (16).

[6] = cited from earlier work
[7] = nasal, cited from earlier work
[8] = Zn-human insulin nasal, in situ rat model, plasma glucose; type: in vivo, male Wistar rats
Protocol: The Hirai's in situ model (as modified by Fisher) was used to study the nasal absorption of insulin using non-diabetic male Wistar Rats of 150 g fasted overnight. The rats were anaesthetized with an i.p. injection of 0.25 ml of Pentobarbitone (60 mg/ml).
A 250 IV/ml solution of Zinc (Zn)-human insulin was prepared in buffer (1/75M Na2 HPO4)) of pH 7.3. In some experiments 0.2% of LPC or for comparison 1% Glycodeoxycholate (GDC) were added to the preparation as absorption enhancers. The experiments were performed in replicate (n=4). 10 μl was administered into the nasal cavity equivalent to 16.67 IV/kg (2.5 IV/rat). Blood samples (0.2 ml) were collected into 5 ml fluoride oxalate tubes at 10, 6 and 2 min pre-administration and at 5, 10, 20, 40, 60, 90, 120, 180, 240 and 300 min post-administration. The blood was replaced by saline administered through the jugular vein.

[9] = cited from earlier work; remark: listed apart in the source
[10] = hGH nasal, in situ rat model (ELISA); type: in vivo, male Wistar rats
Protocol: For all experiments biosynthetic hGH was used.
As before the experiments were performed using the rat in situ model described by Hirai and modified by Fisher.
Non-fasted male Wistar rats of about 200 g were divided into groups of 4 and anaesthetized using an i.p. injection of 0.35 ml of pentobarbitone (60 mg/ml).
Three different hGH preparations were administered to the rats namely a 10 mg/ml solution of hGH in potassium phosphate buffer (1/75M), pH=7.2, as before with the addition of 0.05% LPC and as before with the addition of 0.5% LPC.
20 μl (1 mg/kg) of either of the three preparations were administered intranasally by means of a plastic tubing.
All experiments were performed in replicate. Blood samples, 20 drops were collected and kept on ice at times 0, 5, 10, 20, 30, 40, 50, 60, 90, 120, 180, 240 and 300 min after the application. The plasma was separated and stored at -20° C. until analysis.

[11] = in vivo
[12] = Maximum loading capacity of albumin microspheres; type: physicochemical; conditions: emulsion technique
Protocol: The active agent can be incorporated into the microspheres during their formulation or sorbed into/onto the system after preparation.
Albumin microspheres were prepared as described above by an emulsion technique with a stirring speed of 900 rpm and the model drug dissolved in the albumin solution at various concentrations.
Concentrations of 0.5, 2, 4 and 5% w/v Rose bengal were used. […] Due to the solution characteristics of sodium cromoglycate in water the highest concentration that could be used was […]. Thus, microspheres were manufactured from solutions containing 0.5, 1, 2 and 4% w/v sodium cromoglycate.

[13] = intranasal solution without enhancer, 1 mg/kg
[14] = microspheres with lysophosphatidylcholine

CC(C)NC[C@H](O)COc1cccc2ccccc12 (racemic) [propanolol]
plasma levels [1]: identical to intravenous administration

NC(=O)CC[C@@H]1NC(=O)[C@H](Cc2ccccc2)NC(=O)[C@H](Cc2ccc(O)cc2)NC(=O)CCSSC[C@@H](C(=O)N2CCC[C@H]2C(=O)N[C@H](CCCN=C(N)N)C(=O)NCC(N)=O)NC(=O)[C@H](CC(N)=O)NC1=O [DDVAP, reference compound]
enhancement concept, outcome ([2]; in vivo): successful

Na-insulin: Na-insulin (mainly monomer/dimer forms)
shape of plasma glucose curves versus s.c. [3]: surprisingly similar to the ones obtained for the s.c. administration
plasma glucose levels [3]: even more drastic decreases
plasma glucose levels versus simple insulin solution [3]: lowered significantly

gentamicin
bioavailability [4]: poor bioavailability
peak level relative to solution alone [4]: five fold greater
bioavailability versus IV dose [5]: 57.3%
peak blood level [5]: 0.4 µg/mL
enhancement concept, outcome ([2]; in vivo): successful
nasal absorption ([6]; into the nose, without enhancer): poorly absorbed
biological availability with bile salts ([6]; nasal, added bile salts): enhanced

salmon calcitonin
plasma calcitonin increase ([7]; in combination with a surfactant): significant increase
AUC increase ([7]; with surfactant enhancer): 10 fold
plasma calcitonin ([7]; without enhancer): only trace amounts

Zn-insulin: Zn-insulin (mainly hexamer form)
lowering of plasma glucose level ([8]; intranasal simple solution): not effective
plasma glucose level ([8]; intranasal, with 0.2% LPC): fast and significant drop
shape of plasma glucose curves versus s.c. [3]: surprisingly similar to the ones obtained for the s.c. administration
plasma glucose levels [3]: even more drastic decreases
plasma glucose levels versus simple insulin solution [3]: lowered significantly

CC(=O)[C@H]1CC[C@H]2[C@@H]3CCC4=CC(=O)CC[C@]4(C)[C@H]3CC[C@]12C [progesterone]
time of peak concentration ([9]; nasal route): approximately 6 minutes
bioavailability, oral ([9]; oral route, compared to IV administration): ~1.2%
effectiveness, oral ([9]; oral route): largely ineffective

hGH: biosynthetic hGH
nasal absorption [10, 13]: not absorbed at any significant degree
plasma level peak [10, 13]: about 3.5 ng/ml
effect of 0.05% LPC on absorption ([10]; intranasal with 0.05% LPC): no effect
AUC ([10]; intranasal with 0.5% LPC): very significant increase
plasma level peak ([10]; intranasal with 0.5% LPC, 1 mg/kg): about 57 ng/ml
enhancement concept, outcome [2, 14]: successful
bioavailability versus subcutaneous injection [11]: about 20%
plasma level with microspheres and LPC [11]: increased considerably
shape of profile ([11]; sc): flatter profile

O=C([O-])c1c(Cl)c(Cl)c(Cl)c(Cl)c1-c1c2cc(I)c(=O)c(I)c-2oc2c(I)c([O-])c(I)cc12.[Na+].[Na+] [Rose bengal]
maximum loading capacity [12]: 170 μg per mg albumin microspheres

calcitonin: calcitonin [reference compound]
enhancement concept, outcome [2, 14]: successful

O=C(O)c1cc(=O)c2c(OCC(O)COc3cccc4oc(C(=O)O)cc(=O)c34)cccc2o1 [sodium cromoglycate]
maximum loading capacity [12]: 137 μg per mg albumin microspheres

B1: CCK: CCK (peptide, UniProt P06307 21-115, looked up)
Cholecystokinin: QPVPPADPAGSGLQRAEEAPRRQLRVSQRTDGESRAHLGALLARYIQQARKAPSGRMSIVKNLQNLDPSHRISDRDYMGWMDFGRRSAEEYEYPS
enhancement concept, outcome [2, 14]: successful
